Key:
IκB kinase = biological target: T1, IκB kinase (Homo sapiens, UniProt O14920+O15111); assay: IκB kinase ELISA; type: biochemical; details: kinase complex from HeLa S3 cell extract S100, activated with MEKK1Δ
T1 construct: endogenous in cells; host or cells: HeLa S3 cell extract S100 (ammonium sulfate cut, Superose-6 fractions at 670 kDa)
Method: The activity of the IκB kinase was determined using an ELISA comprising a biotinilated substrate peptide containing the amino acid sequence in the protein IκB of serines 32 to 36 and a specific poly- or monoclonal antibody (for example from New England Biolabs, Beverly, Mass., USA, cat.: 9240), which binds only to the phosphorylated form of the peptide IκB. This complex was immobilized on an antibody-binding plate (coated with protein A) and detected using a conjugate of a biotin-binding protein and HRP (for example streptavidine HRP). The activity could be quantified using a standard curve with substrate phosphopeptide.
To obtain the kinase complex, 10 ml of HeLa S3 cell extract S100 were diluted with 40 ml 50 mM HEPES, pH 7.5, adjusted to 40% ammonium sulfate and incubated on ice for 30 minutes. The precipitated pellet was dissolved in 5 ml SEC buffer (50 mM HEPES, pH 7.5, 1 mM DTT, 0.5 mM EDTA, 10 mM 2-glycerophosphate), centrifuged at 20,000×g for 15 minutes and filtered through a 0.22 μm filter. The sample was applied to a 320 ml Superose-6 FPLC column (Amersham Pharmacia Biotech AB, Uppsala, Sweden) which had been equilibrated with SEC buffer and was operated at a flow rate of 2 ml/min at 4° C. The fractions which corresponded to the elution time of the 670 kDa molecular weight standard were combined for activation. Activation was achieved by a 45-minute-incubation with 100 nM MEKK1Δ, 250 μM MgATP, 10 mM MgCl2, 5 mM dithiothreitol (DTT), 10 mM 2-glycerophosphate, 2.5 μM microcystin LR at 37° C. The activated enzyme was stored at −80° C.
The test substances, dissolved in DMSO (2 μl), were preincubated at 25° C. with 43 μl of activated enzyme (diluted 1:25 in reaction buffer 50 mM HEPES, pH 7.5, 10 mM MgCl2, 5 mM DTT, 10 mM β-glycerophosphate, 2.5 μM microcystin LR) for 30 minutes. 5 μl of substrate peptide (biotin-(CH2)6-DRHDSGLDSMKD-CONH2) (200 μM) were added, the mixture was incubated for one hour and the reaction was quenched using 150 μl of 50 mM HEPES, pH 7.5, 0.1% BSA, 50 mM EDTA, antibody [1:200]. 100 μl of the quenched reaction mixture or a standard phosphopeptide dilution series (biotin-(CH2)6-DRHDS[PO3]GLDSMKD-CONH2) were then transferred to a protein A plate (Pierce Chemical Co., Rockford, Ill., USA) and incubated with shaking for 2 hours.
After 3 washing steps with PBS, 100 μl of 0.5 μg/ml of streptavidin HRP (horseradish peroxidase) (diluted in 50mM HEPES/0.1% BSA) were added for 30 minutes. After 5 washing steps with PBS, 100 μl of TMB substrate (Kirkegaard & Perry Laboratories, Gaithersburg, Md., USA) were added and the development of color was stopped by addition of 100 μl of 0.18 M sulfuric acid. Absorption was measured at 450 nm. The standard curve was generated by […] according to a 4-parameter dose-activity relation. Using this standard curve, the enzyme activity or their inhibition by test substances was quantified.
Each substance was tested in duplicate. The mean of the blank (without enzyme) was subtracted from the means (enzyme with and without substances), and the inhibition in % was calculated. IC50 calculations were carried out using the software package GraFit 3.0.

protein kinase C (PKC) = assay: PKC kinase inhibition (Upstate test kit); type: biochemical; details: substance concentration 100 μM; ATP 50 μM
Method: (§1) cAMP-dependent protein kinase (PKA), protein kinase C (PKC) and casein kinase II (CK II) were determined using the corresponding test kits of Upstate Biotechnologie according to the instructions of the manufacturer at an ATP concentration of 50 μM. However, instead of phosphocellulose filters, multi-screen plates (Millipore; Phosphocellulose MS-PH, cat. MAPHNOB10) with the corresponding aspiration system were used. The plates were then measured in a Wallac MicroBeta scintillation counter. In each case, 100 μM of test substance were used. Each substance was tested in duplicate. The mean of the blank (without enzyme) was subtracted from the means (enzyme with and without substances), and the inhibition in % was calculated. IC50 calculations were carried out using the software package GraFit 3.0.

casein kinase II (CK II) = biological target: T2, casein kinase II (CK II) (Homo sapiens, UniProt P68400); assay: CK II kinase inhibition (Upstate test kit); type: biochemical; details: substance concentration 100 μM; ATP 50 μM
T2 construct: purchased Upstate Biotechnologie
Method: as §1

[1] = biological target: T3, cAMP-dependent protein kinase (PKA) (Homo sapiens, UniProt P17612); assay: PKA kinase inhibition (Upstate test kit); type: biochemical; details: substance concentration 100 μM; ATP 50 μM
T3 construct: purchased Upstate Biotechnologie
Method: as §1

T1 sequence (O14920 whole entry): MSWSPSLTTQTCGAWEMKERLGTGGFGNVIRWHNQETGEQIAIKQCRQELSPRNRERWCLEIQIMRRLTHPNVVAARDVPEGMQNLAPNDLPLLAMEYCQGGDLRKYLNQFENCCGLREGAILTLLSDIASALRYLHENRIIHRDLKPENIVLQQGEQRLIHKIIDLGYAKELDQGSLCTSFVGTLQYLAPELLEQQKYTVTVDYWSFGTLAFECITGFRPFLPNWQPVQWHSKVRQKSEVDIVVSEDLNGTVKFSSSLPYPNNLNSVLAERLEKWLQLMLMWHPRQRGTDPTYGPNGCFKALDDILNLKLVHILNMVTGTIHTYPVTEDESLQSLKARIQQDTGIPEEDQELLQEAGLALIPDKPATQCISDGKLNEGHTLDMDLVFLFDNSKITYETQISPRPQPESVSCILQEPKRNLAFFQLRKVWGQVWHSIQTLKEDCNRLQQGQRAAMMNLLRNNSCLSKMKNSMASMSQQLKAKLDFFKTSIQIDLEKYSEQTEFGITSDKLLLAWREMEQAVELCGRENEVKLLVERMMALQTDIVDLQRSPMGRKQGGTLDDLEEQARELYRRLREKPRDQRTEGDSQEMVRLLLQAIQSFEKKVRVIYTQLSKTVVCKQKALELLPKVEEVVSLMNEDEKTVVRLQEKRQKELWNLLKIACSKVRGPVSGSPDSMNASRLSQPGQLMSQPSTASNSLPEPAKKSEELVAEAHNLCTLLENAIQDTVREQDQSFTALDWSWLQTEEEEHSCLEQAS
T1 sequence (O15111 whole entry): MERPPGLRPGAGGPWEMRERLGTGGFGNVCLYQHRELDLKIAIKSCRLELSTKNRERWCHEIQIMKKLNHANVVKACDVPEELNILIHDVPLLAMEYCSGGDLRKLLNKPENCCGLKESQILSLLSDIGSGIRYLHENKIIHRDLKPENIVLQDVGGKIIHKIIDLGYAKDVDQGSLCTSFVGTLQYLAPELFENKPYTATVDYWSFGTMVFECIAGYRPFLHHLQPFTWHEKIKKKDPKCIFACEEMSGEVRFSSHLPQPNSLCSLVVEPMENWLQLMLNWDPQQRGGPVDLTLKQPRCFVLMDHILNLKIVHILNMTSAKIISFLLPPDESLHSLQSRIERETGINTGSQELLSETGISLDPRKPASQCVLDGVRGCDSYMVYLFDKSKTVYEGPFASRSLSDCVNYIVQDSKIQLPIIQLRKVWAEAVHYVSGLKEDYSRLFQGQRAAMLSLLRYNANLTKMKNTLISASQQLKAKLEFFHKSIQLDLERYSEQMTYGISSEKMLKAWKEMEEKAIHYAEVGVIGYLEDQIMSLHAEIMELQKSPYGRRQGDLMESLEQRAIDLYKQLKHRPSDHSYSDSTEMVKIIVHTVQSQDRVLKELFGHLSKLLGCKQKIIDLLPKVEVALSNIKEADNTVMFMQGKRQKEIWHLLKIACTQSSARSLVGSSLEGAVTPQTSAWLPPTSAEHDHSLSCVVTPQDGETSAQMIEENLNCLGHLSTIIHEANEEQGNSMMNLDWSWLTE
T1 sequence (Q9Y6K9 whole entry partner): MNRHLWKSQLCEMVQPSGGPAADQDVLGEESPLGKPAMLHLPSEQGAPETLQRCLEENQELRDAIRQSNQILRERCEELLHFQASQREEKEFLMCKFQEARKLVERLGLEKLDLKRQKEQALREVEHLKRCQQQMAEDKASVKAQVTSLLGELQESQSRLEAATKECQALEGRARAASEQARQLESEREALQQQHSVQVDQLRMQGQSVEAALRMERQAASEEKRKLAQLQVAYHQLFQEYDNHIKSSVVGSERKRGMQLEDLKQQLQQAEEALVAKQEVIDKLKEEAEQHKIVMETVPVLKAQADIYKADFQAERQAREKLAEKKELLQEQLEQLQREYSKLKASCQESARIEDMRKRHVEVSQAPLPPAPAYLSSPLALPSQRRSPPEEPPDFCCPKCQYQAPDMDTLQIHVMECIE
T2 sequence (P68400 whole entry): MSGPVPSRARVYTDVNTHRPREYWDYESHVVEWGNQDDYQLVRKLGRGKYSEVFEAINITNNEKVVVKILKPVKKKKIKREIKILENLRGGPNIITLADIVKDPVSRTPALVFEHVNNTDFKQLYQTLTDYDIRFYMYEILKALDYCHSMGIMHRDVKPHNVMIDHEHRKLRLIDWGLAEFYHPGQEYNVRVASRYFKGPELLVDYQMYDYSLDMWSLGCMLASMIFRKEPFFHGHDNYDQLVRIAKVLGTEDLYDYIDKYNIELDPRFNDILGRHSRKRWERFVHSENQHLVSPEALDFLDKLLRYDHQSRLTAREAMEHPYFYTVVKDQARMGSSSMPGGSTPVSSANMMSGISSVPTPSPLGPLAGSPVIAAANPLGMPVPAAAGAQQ

Row | SMILES | IC50 (IκB kinase) | melting point | PKC % inhibition (protein kinase C (PKC)) | inhibition at 100 µM (casein kinase II (CK II)) | inhibition at 100 µM [1]
1 | NC(=O)[C@H](CCc1ccccc1)NC(=O)c1ccc2[nH]c(-c3ccccc3)c(-c3ccccc3)c2c1 [Example 1, N-(1-Carbamoyl-3-phenylpropyl)-2,3-diphenyl-1H-indole-5-carboxamide] | 32000 nM | 120 to 125 °C |  |  | 
2 | O=C(N[C@@H](CSc1ccccc1)C(=O)O)c1ccc2[nH]c(-c3ccncc3)cc2c1 [Example 4] | 500 nM |  | 33% | 47% | 42%
3 | Cc1c(-c2ccncc2)[nH]c2ccc(C(=O)N[C@@H](CSc3ccccc3)C(=O)O)cc12 [Example 5] | 1800 nM |  | 8% | 27% | 55%
4 | NC(=O)[C@H](CCc1ccccc1)NC(=O)c1ccc2[nH]c(-c3ccncc3)cc2c1 [Example 2] | 610 nM |  | 15% | 35% | 24%
5 | CCN(C[C@H](NC(=O)c1ccc2[nH]c(-c3ccncc3)cc2c1)C(N)=O)c1ccccc1 [Example 9] | 1000 nM |  | 23% | 0% | 0%
6 | Cc1c(-c2ccncc2)[nH]c2ccc(C(=O)N[C@@H](CCn3cccc3)C(N)=O)cc12 [Example 7, N-(1-Carbamoyl-3-pyrrol-1-ylpropyl)-3-methyl-2-pyridin-4-yl-1H-indole-5-carboxamide] | 3000 nM |  |  | 18% | 

Next, values leading:

Row | IC50 (IκB kinase) | melting point | PKC % inhibition (protein kinase C (PKC)) | inhibition at 100 µM (casein kinase II (CK II)) | inhibition at 100 µM [1] | SMILES
7 | 550 nM |  | 39% | 37% | 35% | NC(=O)[C@H](CSc1ccccc1)NC(=O)c1ccc2[nH]c(-c3ccncc3)cc2c1 (stereo in doubt) [Example 3, N-(1-carbamoyl-2-phenylsulfanylethyl)-2-pyridin-4-yl-1H-indole-5-carboxamide]
8 | 4900 nM |  | 58% | 39% | 60% | Cc1c(-c2ccncc2)[nH]c2ccc(C(=O)N[C@@H](CSc3ccccc3)C(N)=O)cc12 [Example 6]
